Molecular target: T1, Broad substrate specificity ATP-binding cassette transporter ABCG2 (Homo sapiens, UniProt Q9UNQ0)
T1 sequence (Q9UNQ0 whole entry): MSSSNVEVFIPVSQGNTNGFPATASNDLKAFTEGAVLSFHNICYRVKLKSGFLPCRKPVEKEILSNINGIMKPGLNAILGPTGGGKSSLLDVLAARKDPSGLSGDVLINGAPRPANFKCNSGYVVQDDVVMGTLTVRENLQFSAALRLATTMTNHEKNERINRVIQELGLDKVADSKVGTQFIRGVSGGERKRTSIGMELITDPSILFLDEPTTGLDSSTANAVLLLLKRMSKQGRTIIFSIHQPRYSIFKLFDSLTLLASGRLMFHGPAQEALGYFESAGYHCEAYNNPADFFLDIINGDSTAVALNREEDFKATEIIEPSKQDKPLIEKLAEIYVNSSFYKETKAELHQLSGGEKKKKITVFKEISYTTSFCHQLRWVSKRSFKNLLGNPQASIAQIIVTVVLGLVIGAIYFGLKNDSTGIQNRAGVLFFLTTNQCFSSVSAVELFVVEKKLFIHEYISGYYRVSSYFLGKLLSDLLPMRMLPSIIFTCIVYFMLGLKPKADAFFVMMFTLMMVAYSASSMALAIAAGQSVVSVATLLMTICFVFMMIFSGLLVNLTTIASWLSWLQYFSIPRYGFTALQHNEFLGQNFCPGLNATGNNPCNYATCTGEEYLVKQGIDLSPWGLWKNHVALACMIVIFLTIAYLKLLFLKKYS
Test: Inhibition of ABCG2 (unknown origin) expressed in HEK293 cells assessed as increase in mitoxantrone accumulation incubated for 30 mins by flow cytometric method
Format: cell-based

Which EC50 does the source give for `COc1ccc2[nH]cc(CCNC(=O)c3cc(=O)c4c(OCc5cc(Br)cc(Br)c5)cccc4o3)c2c1` here?
Its EC50 is 97 nM.

Which EC50 does the source give for `COc1ccc2[nH]cc(CCNC(=O)c3cc(=O)c4c(OCc5ccc(Br)cc5Br)cccc4o3)c2c1` here?
The EC50 was 46 nM.

— ChEMBL document CHEMBL4406873, “Optimization of the chromone scaffold through QSAR and docking studies: Identification of potent inhibitors of ABCG2” (Eur J Med Chem, 2019)
